What was measured:
[1] = test system: C. albicans; assay: Effect on the morphology of growing Candida albicans cultures; assay type: cell-based; details: inhibiting concentrations
[2] = test system: H. capsulatum; assay: microbe, parasite or virus in culture; assay type: cell-based

SMILES	effect on hyphal tube formation ([1]; microscopy)	effect on cell growth ([1]; microscopy and MTT)	MIC90/MIC range 48 h ([2]; H. capsulatum (n = 20), MIC90, 48 h) [µg/mL]	MIC90 ([2]; Histoplasma capsulatum, 120 h) [µg/mL]
O=C(O)CCCCCCC/C=C\C#CC#Cc1ccco1 [Compound III″]	prevented hyphal tube formation	fungicidal, totally preventing cell growth		
O=C([O-])CCCCCCC/C=C\C#CC#Cc1ccco1.[K+] [Compound IV″, potassium (Z)-14-(furan-2-yl)tetradeca-9-en-11,13-diynoate]			0.03	0.03

— patent publication US8722910B2, “Diyne compositions” (Evolva AG, priority 2009, dated 2014)
